Patent US20080193963A1, “Method of Determining the State of Activation of a Protein” (NAMBITION GMBH, priority 2005, published 2008)

Biological target: T1, NhaA (Escherichia coli, UniProt P13738)
T1 construct: Pulling NhaA (402aa) from either the N- or C-terminus; His6 (C); made in house; host or cells: E. coli BL21(DE3)
Test: Single-molecule force spectroscopy (SMFS) unfolding of NhaA in presence of inhibitor
Assay type: binding
Description: We used a NanoWizard AFM (JPK Instruments, Germany) with an 850 nm laser detection system. As AP absorbs light between 290 and 350 nm, we avoided double-photon excitation and photobleaching by the laser. The spring constants of the 200 μm long (di-Veeco, USA) and 80μ long (Olympus, Japan) Si3N4 AFM cantilevers used were determined using the equipartion theorem (Butt H. J., 1995; Florin, 1995). NhaA was reconstituted into E. coli polar lipid bilayers forming two-dimensional crystals (Williams et al., 1999). Membranes were immobilized on freshly cleaved mica in 200 mM KCl, 10% glycerol, 25 mM K^+-acetate, pH 4.0 for 20 min. Experiments were performed in buffer solutions containing 190 mM KCl and 10 mM NaCl at pH 7.7 (20 mM tris-HCl) and pH 4.0 (20 mM citric acid). AP concentrations of prepared solutions were determined by their optical densities at λ=305.5 using the excitation coefficient eAP=7500 M^−1·cm^−1 (Additional Ref. 151). Solutions containing AP were kept away from light and experiments were performed in a dark room. Buffer solutions were made in fresh nano-pure water (18.2MΩ·cm^−1), using p. a. purity grade reagents from Sigma/Merck. AFM topographs of immobilized membrane patches resolved the crystalline NhaA arrangements, which were selected to unfold individual proteins (Kedrov et al., 2004).
Only C-terminal unfolding events were studied as they are dominant at pH 7.7 (Additional Ref. 152). To obtain the unfolded polpeptide chain length each force peak was fifted using the worm-like-chain (Bustamante et al., 1994) model as described ([…]). Individual unfolding barriers were located by subtracting the unfolded polypeptide length fron the C-terminus. For each force peak (unfolding barrier) the probability and average forces were calculated. At every studied condition up to 150 single-molecule unfolding events were analyzed using Igor Pro (Wavemetrics Inc., USA) and home-written macros. To probe the statistical difference of data sets the data were tested against one-way ANOVA analysis.

T1 sequence (P13738 whole entry): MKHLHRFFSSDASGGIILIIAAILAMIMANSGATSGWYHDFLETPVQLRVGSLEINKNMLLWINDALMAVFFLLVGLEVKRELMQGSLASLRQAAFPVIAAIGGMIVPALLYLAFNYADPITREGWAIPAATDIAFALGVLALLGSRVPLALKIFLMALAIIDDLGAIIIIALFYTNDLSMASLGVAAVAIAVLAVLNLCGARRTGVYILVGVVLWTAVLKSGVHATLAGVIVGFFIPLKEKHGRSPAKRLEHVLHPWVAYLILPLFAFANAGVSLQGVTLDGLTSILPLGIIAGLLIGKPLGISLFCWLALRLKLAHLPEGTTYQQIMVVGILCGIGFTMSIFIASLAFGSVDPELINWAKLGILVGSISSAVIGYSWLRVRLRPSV

SMILES: NC1=Nc2cccc3cccc(c23)N1 [AP, 2-aminoperimidine]
- "stable" fraction in histograms of force at helix IX (AP binding) with increasing Na+ concentration (40 μM AP, 10 or 200 μM NaCl as printed): drastic decrease
- average strength of the interaction detected by the 125aa force peak (helix XI as printed) (40 μM AP, NhaA activated at pH 7.7, mean ±SD, n=95, without AP 75±29 pN (n=61), p<0.0001): 105±41 pN
- enhanced interaction strength of a fraction of NhaA molecules (125aa peak) after exposure to AP (pH 7.7, NhaA.AP complex population, free NhaA ≈75 pN): ≈ 140 pN
- NhaA molecules that established enhanced stability at α-helix IX (pH-locked conformation, pH 4.0, incubated with 40 μM AP): ≈ 15%
